{"source": "paper PMC400651", "about": "(Breast Cancer Research, 2003)", "target": "aryl hydrocarbon receptor (AhR) (Homo sapiens, UniProt P35869)", "sequence (P35869 11-848)": "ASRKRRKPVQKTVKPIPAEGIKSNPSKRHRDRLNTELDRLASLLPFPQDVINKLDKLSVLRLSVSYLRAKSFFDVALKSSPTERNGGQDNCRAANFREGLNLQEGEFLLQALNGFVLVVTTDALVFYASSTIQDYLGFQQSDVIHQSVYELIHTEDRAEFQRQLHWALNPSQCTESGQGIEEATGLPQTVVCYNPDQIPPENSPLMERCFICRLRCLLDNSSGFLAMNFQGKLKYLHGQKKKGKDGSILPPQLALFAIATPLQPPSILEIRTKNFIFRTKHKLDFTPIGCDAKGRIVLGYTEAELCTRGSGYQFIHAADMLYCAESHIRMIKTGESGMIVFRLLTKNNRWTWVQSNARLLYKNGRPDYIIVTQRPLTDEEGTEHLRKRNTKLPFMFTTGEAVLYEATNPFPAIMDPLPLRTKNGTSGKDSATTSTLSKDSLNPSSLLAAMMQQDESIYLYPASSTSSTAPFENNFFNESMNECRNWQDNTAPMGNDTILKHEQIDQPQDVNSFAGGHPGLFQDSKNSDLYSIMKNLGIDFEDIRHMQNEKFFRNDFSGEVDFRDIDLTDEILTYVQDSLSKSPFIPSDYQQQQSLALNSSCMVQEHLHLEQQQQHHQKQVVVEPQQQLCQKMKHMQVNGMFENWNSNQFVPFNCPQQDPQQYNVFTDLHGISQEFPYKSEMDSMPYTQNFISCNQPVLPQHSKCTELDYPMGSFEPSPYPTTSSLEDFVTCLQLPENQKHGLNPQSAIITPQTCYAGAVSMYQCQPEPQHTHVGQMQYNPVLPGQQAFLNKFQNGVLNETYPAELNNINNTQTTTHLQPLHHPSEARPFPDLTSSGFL", "assay": "[3H]TCDD radioligand competition in whole T47D cells", "type": "cell-based"}
{"smiles": "O=C(O)/C=C/c1ccc(O)c(O)c1", "note": "[caffeic acid]", "values": [{"measurement": "IC50", "value": 0.158, "unit": "µM"}]}
